This note sets out measurements from US20240279220A1, “INDOLE COMPOUNDS AND METHODS OF USE” (Genzyme Corporation, priority 2021, published 2024).

This test deals with NBD1/3D. Nature of the test: Aggregation analysis using differential static light scattering (DSLS), NBD1 thermal stability. The test is classed as binding, Human. The note with it: ΔTagg versus DMSO control; compound at 100 μM. The protocol:
Purified recombinant NBD1 was produced using previously described methods (A. Schmidt, J. L. Mendoza, P. J. Thomas (2011) Biochemical and Biophysical Approaches to Probe CFTR Structure (365-376) M. D. Amaral, K. Kunzelmann (eds.), Cystic Fibrosis, Methods in Molecular Biology 741, Springer Science+Business Media). The effect of test compounds on thermal stability of NBD1 was evaluated by differential static light scattering (DSLS) using the Harbinger Stargazer-384 instrument (Epiphyte Three, Toronto, Canada).
Test compounds were dissolved and diluted to desired concentrations in 100% DMSO. The compounds or DMSO controls (100 nL) were stamped into wells of a […] low volume optical plate (Corning Inc., Corning, NY) using the Echo 555 acoustic liquid handler (Labcyte Inc., San Jose, CA).
NBD1 protein was diluted to 0.2 mg/ml in S200 buffer (50 mM Tris-HCl, 150 mM NaCl, 5 mM MgCl2, 2 mM ATP, 2 mM DTT, pH7.6) containing 1% glycerol. 10 uL of protein solution was aliquoted into the 384-well plate harboring the test compounds and 10 uL mineral oil was overlayed onto the protein solution, using the epMotion robotic liquid handler (Eppendorf North America, Hauppauge, NY). After placing into the Stargazer instrument, the plate was heated at 1° C. per minute to 70° C. Images were captured from 25° C. to 70° C. every 0.5° C. At the end of the experiment run, instrument software integrated image files and analyzed data automatically. A […] regression curve was generated for each well, representing the increase in light scattering over time. A temperature of aggregation (Tagg) was calculated based on the inflection point of the curve. To better compare data across experiments the average Tagg for DMSO control wells was calculated and subtracted from values for wells containing compounds to obtain a “ΔTagg” value. These ΔTagg values reflect stabilizing efficacy of the compounds.

In the case of `Cc1c(Oc2ccc(F)c(-c3ncc(C(C)(C#N)c4cccc(CCC(=O)O)c4)[nH]3)c2)c(F)c(F)c2[nH]ccc12` (stereo not shown) [Example 56, 3-(3-(1-cyano-1-(2-(5-((6,7-difluoro-4-methyl-1H-indol-5-yl)oxy)-2-fluorophenyl)-1H-imidazol-5-yl)ethyl)phenyl)propanoic acid], the “DSLS NBD1/3D Human Stability delta-T (° C.) @ 100 (μM)” value (“DSLS NBD1/3D Human Stability delta-T” for short) is “B (B: 5-10° C.)”.
With `O=C(O)CCCCCc1cccc(Cc2nnc(-c3cccc(Oc4ccc5[nH]ccc5c4)c3)[nH]2)c1` [Example 255, 6-(3-((5-(3-((1H-indol-5-yl)oxy)phenyl)-4H-1,2,4-triazol-3-yl)methyl)phenyl)hexanoic acid], the “DSLS NBD1/3D Human Stability delta-T” value is reported as “C (C: ≤5° C.)”.
As for `Cc1c(Oc2cccc(-c3ncc(C(C)(O)c4cccc(CCS(C)(=O)=O)c4)[nH]3)c2)c(F)cc2[nH]ccc12` (stereo not shown) [Example 208, 1-(2-(3-((6-fluoro-4-methyl-1H-indol-5-yl)oxy)phenyl)-1H-imidazol-5-yl)-1-(3-(2-(methylsulfonyl)ethyl)phenyl)ethan-1-ol], the “DSLS NBD1/3D Human Stability delta-T” value is recorded as “C (C: ≤5° C.)”.
For `CC(c1c[nH]c(-c2cc(Oc3c(F)cc4[nH]ccc4c3S(C)(=N)=O)ccc2F)n1)c1cccc(CCC(=O)O)c1F` (single isomer, unassigned) [Example 136D, 3-(2-fluoro-3-(1-(2-(2-fluoro-5-((6-fluoro-4-(S-methylsulfonimidoyl)-1H-indol-5-yl)oxy)phenyl)-1H-imidazol-4-yl)ethyl)phenyl)propanoic acid], the “DSLS NBD1/3D Human Stability delta-T” value is listed as “B (B: 5-10° C.)”.
With `O=C(O)CCCCC#Cc1ccc(Cc2nnc(-c3cccc(Oc4ccc5[nH]ccc5c4)c3)[nH]2)cc1` [Example 253, 7-(4-((5-(3-((1H-Indol-5-yl)oxy)phenyl)-4H-1,2,4-triazol-3-yl)methyl)phenyl)hept-6-ynoic acid] the entry was “C (C: ≤5° C.)”; with `CC(Cc1cccc(C(C)c2cnc(-c3cc(Oc4c(F)cc5[nH]ccc5c4F)ccc3F)[nH]2)c1F)C(=O)O` (single isomer, unassigned) [Example 137A, 3-(3-(1-(2-(5-((4,6-difluoro-1H-indol-5-yl)oxy)-2-fluorophenyl)-1H-imidazol-5-yl)ethyl)-2-fluorophenyl)-2-methylpropanoic acid], “B (B: 5-10° C.)”; with `COP(=O)(O)Cc1cccc(Cn2ccc(-c3cccc(Oc4ccc5[nH]ccc5c4CO)c3)n2)c1` [Example 13, methyl hydrogen (3-((3-(3-((4-(hydroxymethyl)-1H-indol-5-yl)oxy)phenyl)-1H-pyrazol-1-yl)methyl)benzyl)phosphonate], “B (B: 5-10° C.)”.
As for `Cc1c(Oc2cnc(F)c(-c3ncc(C(C)(O)c4cccc(CCC(=O)O)c4)[nH]3)c2)c(F)cc2[nH]ccc12` (stereo not shown) [Example 207, 3-(3-(1-(2-(2-fluoro-5-((6-fluoro-4-methyl-1H-indol-5-yl)oxy)pyridin-3-yl)-1H-imidazol-5-yl)-1-hydroxyethyl)phenyl) propanoic acid], the “DSLS NBD1/3D Human Stability delta-T” value is “B (B: 5-10° C.)”.
With `Cc1c(Oc2ccc(F)c(-c3ncc(C(C)c4cccc([C@H]5C[C@H]5C(=O)O)c4F)[nH]3)c2)c(F)cc2[nH]ccc12` (single isomer, unassigned) [Example 138D, cis-2-(2-fluoro-3-(1-(2-(2-fluoro-5-((6-fluoro-4-methyl-1H-indol-5-yl)oxy)phenyl)-1H-imidazol-5-yl)ethyl)phenyl)cyclopropane-1-carboxylic acid] the entry was “C (C: ≤5° C.)”; with `Cc1c(Oc2ccc(F)c(-c3ncc(Cc4cccc(CC(=O)O)n4)[nH]3)c2)c(F)cc2[nH]ccc12` [Example 91, 2-(6-((2-(2-fluoro-5-((6-fluoro-4-methyl-1H-indol-5-yl)oxy)phenyl)-1H-imidazol-5-yl)methyl)pyridin-2-yl)acetic acid], “B (B: 5-10° C.)”.
The result for `CC(C#N)(c1cccc(CCC(=O)O)c1)c1cnc(-c2cc(Oc3c(F)cc4[nH]cnc4c3F)ccc2F)[nH]1` (stereo not shown) [Example 62, 3-(3-(1-cyano-1-(2-(5-((4,6-difluoro-1H-benzo[d]imidazol-5-yl)oxy)-2-fluorophenyl)-1H-imidazol-5-yl)ethyl)phenyl)propanoic acid] reads “B (B: 5-10° C.)”.
Regarding `CS(=O)(=O)c1c(Oc2cccc(-c3nc(Cc4cccc(CCC(=O)O)c4)co3)c2)c(F)cc2[nH]ccc12` [Example 42, 3-(3-((2-(3-((6-Fluoro-4-(methylsulfonyl)-1H-indol-5-yl)oxy)phenyl)oxazol-4-yl)methyl)phenyl)propanoic acid], the “DSLS NBD1/3D Human Stability delta-T” value is “B (B: 5-10° C.)”.
With `O=C(O)CCc1cccc(Cn2ccc(-c3cccc(Oc4ccc5[nH]ccc5c4CO)c3)n2)c1` [Example 10, 3-(3-((3-(3-((4-(Hydroxymethyl)-1H-indol-5-yl)oxy)phenyl)-1H-pyrazol-1-yl)methyl)phenyl)propanoic acid] the entry was “B (B: 5-10° C.)”.
With `CC(c1nnc(-c2cc(Oc3c(F)cc4[nH]ccc4c3F)ccc2F)[nH]1)c1cccc(CCC(=O)O)c1F` (single isomer, unassigned) [Example 252B, 3-(3-(1-(5-(5-((4,6-difluoro-1H-indol-5-yl)oxy)-2-fluorophenyl)-4H-1,2,4-triazol-3-yl)ethyl)-2-fluorophenyl)propanoic acid], the “DSLS NBD1/3D Human Stability delta-T” value is reported as “C (C: ≤5° C.)”.
With `CP(C)(=O)c1c(Oc2cccc(-c3nc(Cc4cccc(CCC(=O)O)c4)cs3)c2)c(F)cc2[nH]ccc12` [Example 92, 3-(3-((2-(3-((4-(Dimethylphosphoryl)-6-fluoro-1H-indol-5-yl)oxy)phenyl)thiazol-4-__yl)methy)phenyl)propanoic acid] the entry was “B (B: 5-10° C.)”; with `COc1cc(F)c(-c2ncc(C(C)(O)c3cccc(CCC(=O)O)c3)[nH]2)cc1Oc1c(F)cc2[nH]ccc2c1C` (stereo not shown) [Example 281, 3-(3-(1-(2-(2-fluoro-5-((6-fluoro-4-methyl-1H-indol-5-yl)oxy)-4-methoxyphenyl)-1H-imidazol-5-yl)-1-hydroxyethyl)phenyl) propanoic acid], “B (B: 5-10° C.)”.
For `CC(Cc1cccc(C(C)c2cnc(-c3cc(Oc4c(F)cc5[nH]ccc5c4F)ccc3F)[nH]2)c1F)C(=O)O` (single isomer, unassigned) [Example 137C, 3-(3-(1-(2-(5-((4,6-difluoro-1H-indol-5-yl)oxy)-2-fluorophenyl)-1H-imidazol-5-yl)ethyl)-2-fluorophenyl)-2-methylpropanoic acid], the “DSLS NBD1/3D Human Stability delta-T” value was “C (C: ≤5° C.)”.
With `Cc1c(Oc2ccc(F)c(-c3ncc(C(C)(O)c4cccc(CCC(=O)O)c4)[nH]3)c2)c(F)c(F)c2[nH]ccc12` (stereo not shown) [Example 204, 3-(3-(1-(2-(5-((6,7-difluoro-4-methyl-1H-indol-5-yl)oxy)-2-fluorophenyl)-1H-imidazol-5-yl)-1-hydroxyethyl)phenyl) propanoic acid] the entry was “B (B: 5-10° C.)”; with `Cc1c(Oc2ccc(F)c(-c3ncc(C(C)c4cccc(CCC(=O)O)c4)[nH]3)c2)c(F)cc2[nH]ccc12` (stereo not shown) [Example 213, 3-(3-(1-(2-(2-Fluoro-5-((6-fluoro-4-methyl-1H-indol-5-yl)oxy)phenyl)-1H-imidazol-5-yl)ethyl)phenyl)propanoic acid], “B (B: 5-10° C.)”; with `CC(C)(c1cnc(-c2cc(Oc3c(F)cc4[nH]ccc4c3F)ccc2F)[nH]1)c1cccc(CCC(=O)O)c1F` [Example 160, 3-(3-(2-(2-(5-((4,6-difluoro-1H-indol-5-yl)oxy)-2-fluorophenyl)-1H-imidazol-5-yl)propan-2-yl)-2-fluorophenyl)propanoic acid], “B (B: 5-10° C.)”.
With `CC(c1cnc(-c2cc(Oc3c(F)cc4[nH]ccc4c3CN3CCCS3(=O)=O)ccc2F)[nH]1)c1cccc(CCC(=O)O)c1F` (single isomer, unassigned) [Example 134A, 3-(3-(1-(2-(5-((4-((1,1-dioxidoisothiazolidin-2-yl)methyl)-6-fluoro-1H-indol-5-yl)oxy)-2-fluorophenyl)-1H-imidazol-5-yl)ethyl)-2-fluorophenyl)propanoic acid] the entry was “B (B: 5-10° C.)”; with `Cc1c(Oc2ccc(F)c(-c3ncc(Cc4cccc(CCC(=O)O)n4)[nH]3)c2)c(F)cc2[nH]ccc12` [Example 90, 3-(6-((2-(2-fluoro-5-((6-fluoro-4-methyl-1H-indol-5-yl)oxy)phenyl)-1H-imidazol-5-yl)methyl)pyridin-2-yl)propanoic acid], “B (B: 5-10° C.)”.
